Measured values published in patent publication US20050049295A1, “Process for the preparation of 5-(2-(4-(1,2-benzisothiazol-3-yl)-1piperazinyl) ethyl)-6-chloro-1, 3-dihydro-2h-indol-2-one hydrochloride (ziprasidone hydrochloride) and its intermediate” (DR. REDDY'S LABORATORIES LIMITED, priority 2003, published 2005).

Columns and labels:
Type in all cases: physicochemical
[1] = Crystal size distribution / mean particle size D[4,3] (Malvern)
Protocol: Ziprasidone hydrochloride (3 Kg) in formic acid (4.5 L) was heated to 60-65° C. for clear dissolution. The solution was filtered to remove any solid particles and the filtrate was cooled to 50-55° C. Ziprasidone hydrochloride (7.5 gm) as seed compound was added to the cooled filtrate. After stirred for 2 hr at 50-55° C., the resulting solution was cooled slowly to 25-35° C. over 1 to 1.5 hour. Ethyl acetate (13.5 L) was added slowly at 25-35° C. over 2 hrs. The resulting mass was stirred for 30-45 min at 25-35° C. The compound was filtered under nitrogen atmosphere. The filtered wet compound was added to acetic acid (10 L) at 25-35° C. under nitrogen atmosphere, and the resulting mixture was stirred for 30-45 min at 25-35° C. The compound was filtered under nitrogen atmosphere, washed with ethyl acetate (10 L), and then dried the compound at 60° C. under reduced pressure for 3-4 hrs and then at 110-120° C. to get the Ziprasidone hydrochloride (2.2 Kg). The product purity by HPLC was analyzed as 99.8%. The crystal size distribution as measured by Malvern was: D10<18.75 micron, D50=114.82 micron, […] and the mean particle size or D[4,3]=123.8 micron.

[2] = Stability study with improved packing (inert atmosphere), 25° C. and 60% relative humidity; conditions: 25° C./60% RH
Description: (§1) Ziprasidone hydrochloride prepared by the present invention can be packed with a specific process to prevent from hydrating or to improve stability during the storage or transporting of ziprasidone hydrochloride products. This can be achieved by storing the active substance in inert atmosphere, which is technologically and economically simple. The active substance Ziprasidone HCl is stored in polythene bag or containers. The inert atmosphere may be made by nitrogen or argon or mixture thereof. Silica gel or desiccant in air permeable bag may be used optionally along with inert gas in the polythene bag or container.
(§2) Stability study with improved packing (inert atmosphere):
The stability studies were also carried out at 25° C. and 60% relative humidity condition.

[3] = Stability study with normal packing (without inert atmosphere), 40° C. and 75% relative humidity; conditions: 40° C./75% RH
Protocol: Stability study with normal packing (without inert atmosphere): Initial and up to two-month stability profile with normal packing was carried out at 40° C. and 75% relative humidity conditions as follow: […]

[4] = Stability study with improved packing (inert atmosphere), 40° C. and 75% relative humidity; conditions: 40° C./75% RH
Description: as §1, §2
Initial and up to two-month stability profile for the hygroscopic active substance Ziprasidone HCl is shown below:
The stability studies were carried out at 40° C. and 75% relative humidity condition.

[5] = X-ray powder diffractogram of initial and two-month stability samples; conditions: Cu K alpha-1 radiation
Protocol: X-Ray diffractograms of active substance Ziprasidone HCl (Initial and after two month sample) were recorded on Bruker Axe, DS Advance Powder X-ray Diffractometer with Cu K alpha-1 Radiation source. The characteristic X-ray diffractogram of Ziprasidone hydrochloride was found similar.

[6] = Example 15, crystal size distribution by Malvern

## Cl.O=C1Cc2cc(CCN3CCN(c4nsc5ccccc45)CC3)c(Cl)cc2N1 [Ziprasidone hydrochloride, 5-(2-(4-(1,2-benzisothiazol-3-yl)-1-piperazinyl)ethyl)-6-chloro-1,3-dihydro-2H-indol-2-one hydrochloride]
[1]; Example 12: reactive crystallization from base in formic acid with HCl in ethyl acetate
  mean particle size or D[4,3]: 94.1 micron
[1]; Example 13: formic acid solvent, ethyl acetate anti-solvent, 30° C.
  mean particle size or D[4,3]: 101.1 micron
[1]; Example 14: seeded cooling crystallization from formic acid
  mean particle size or D[4,3]: 264.5 micron
[1]; [6]
  D10: < 18.75 micron
  D50: 114.82 micron
  D60: < 236.5 micron
[1]; Example 15: seeded, formic acid / ethyl acetate anti-solvent, acetic acid slurry
  mean particle size or D[4,3]: 123.8 micron
[1]; Example 16: reverse addition of formic acid solution into hot seeded ethyl acetate, 1.5 Kg
  mean particle size or D[4,3]: 156.2 micron
[1]; Example 17: reverse addition of formic acid solution into hot seeded ethyl acetate, 20 Kg
  D[4,3]: 132.2 micron
[2]; Initial
  Assay: 99.4% w/w
  Moisture content: 0.54% w/w
  Total Impurity: 0.19% w/w
[2]; One month
  Assay: 99.2% w/w
  Moisture content: 0.38% w/w
  Total Impurity: 0.18% w/w
[2]; Two month
  Assay: 99.3% w/w
  Moisture content: 0.48% w/w
  Total Impurity: 0.21% w/w
[3]; Initial
  Moisture content: 0.25% w/w
[3]; One month
  Moisture content: 3.45% w/w
[3]; Two month
  Moisture content: 4.83% w/w
[4]; Initial
  Assay: 99.4% w/w
  Moisture content: 0.54% w/w
  Total Impurity: 0.19% w/w
[4]; One month
  Assay: 99.4% w/w
  Moisture content: 0.41% w/w
  Total Impurity: 0.19% w/w
[4]; Two month
  Assay: 99.7% w/w
  Moisture content: 0.54% w/w
  Total Impurity: 0.20% w/w
[5]
  X-ray diffractogram, initial versus after two month sample: similar
